Test results published in paper PMC10056348, “Photocaged Histone Deacetylase Inhibitors as Prodrugs in Targeted Cancer Therapy” (Pharmaceuticals, 2023).

Tests used:
[1] = test system: cisplatin-resistant Cal27CisR cells; design: method as in PMID 31762274; settings: cited from earlier work
[2] = test system: human squamous carcinoma cell line Cal27; design: method as in PMID 31762274; settings: cited from earlier work
[3] = test system: human ovarian cancer cell line A2780; design: method as in PMID 31762274; settings: cited from earlier work
[4] = design: method as in PMID 26603496; settings: cited from earlier work
rodent cells = test system: rodent cells; design: method as in PMID 26603496; settings: cited from earlier work
[5] = Photo-uncaging efficiency (HPLC after irradiation at 365 nm); type: physicochemical; settings: 10 min
Procedure: Photolysis (photo-uncaging) of photocaged HDACi prodrugs was performed at room temperature using a UVP CL-1000 Crosslinker (Analytik Jena GmbH, Jena, Germany) equipped with five UV-A tubes (F8T5/BL368; λmax = 365 nm; Analytik Jena GmbH, Jena, Germany). Hereafter, this entire experimental set-up will be referred to as the “UV reactor”.
For the photo-uncaging efficiency testing, 10 µL of a 1.0 mM DMSO solution of the respective compound was irradiated for 10 min using the UV reactor described above. Subsequently, 90 µL acetonitrile was added, and the samples were analyzed via HPLC. The amount of photo-cleaved HDACi was determined by comparison with a five-point calibration curve of the respective parent inhibitor, using HPLC/UV detection at an appropriate wavelength (area under the curve; area mAu*min).
2. Photouncaging Experiments
Photolysis (photouncaging) of photocaged HDACi prodrugs was performed at room temperature using an UVP CL-1000 Crosslinker (Analytik Jena GmbH, Jena, Germany) equipped with five UV-A tubes (F8T5/BL368; λmax = 365 nm; Analytik Jena GmbH, Jena, Germany). Hereafter, this entire experimental set-up will be referred to as the "UV-reactor".
For the deprotection experiments 10 µL of a 1.0 mM DMSO-solution of the respective compound were irradiated for 10 min using the UV-reactor described above. Subsequently, 90 µL acetonitrile were added and the samples were analyzed via HPLC. The amount of photo-cleaved HDACi was determined by comparison with a five-point calibration curve of the respective parent inhibitor using HPLC/UV detection at an appropriate wavelength (area under the curve; area mAu*min).
Figure S5. Calibration curve of DDK-137 (I).

SMILES: CN(C)c1ccc(C(=O)N(CC(=O)NCc2ccccc2)Cc2ccc(C(=O)Nc3ccccc3N)cc2)cc1 [II, N-{4-[(2-aminophenyl)-carbamoyl]-benzyl}-N-[2-(benzylamino)-2-oxoethyl]-4-(dimethylamino)-benzamide]
- reversal of cisplatin resistance [1]: capable of reversing cisplatin resistance
- antiproliferative effects in Cal27 [2]: promising antiproliferative effects
- antiproliferative effects in A2780 [3]: promising antiproliferative effects

SMILES: O=C(CCCCCCC(=O)Nc1ccccc1)NO [Vorinostat]
- mutagenic activity in the Ames test [4]: mutagenic activity
- chromosomal aberrations in rodent cells (rodent cells): provoke chromosomal aberrations

SMILES: O=C(/C=C/c1cccc(S(=O)(=O)Nc2ccccc2)c1)NO [belinostat]
- mutagenic activity in the Ames test [4]: mutagenic activity
- chromosomal aberrations in rodent cells (rodent cells): provoke chromosomal aberrations

SMILES: Cc1[nH]c2ccccc2c1CCNCc1ccc(/C=C/C(=O)NO)cc1 [panobinostat]
- mutagenic activity in the Ames test [4]: mutagenic activity
- chromosomal aberrations in rodent cells (rodent cells): provoke chromosomal aberrations

SMILES: COc1cc(COC(=O)Nc2ccccc2NC(=O)c2ccc(CN(CC(=O)NCc3ccccc3)C(=O)c3ccc(N(C)C)cc3)cc2)c([N+](=O)[O-])cc1OC [pc-II, 4,5-Dimethoxy-2-nitrobenzyl-{2-[4-({N-[2-(benzylamino)-2-oxoethyl]-4-(dimethylamino)benzamido}methyl)benzamido]phenyl}carbamate]
- melting point: 159 to 161 °C
- behaviour under treatment with light ([5]; DMSO): decomposed
- yield of photo-released parent inhibitor ([5]; DMSO, HPLC with calibration curve): did not release the parent HDACi II in significant quantities
- concentration of photo-released parent inhibitor after irradiation ([5]; initial concentration 100 µM): not detected
